One data set has as its system COLO 205. As to the kind of experiment: Antiproliferative activity against human COLO205 cells after 96 hrs by celltiter 96 assay. Particulars: COLO 205, 96 h. It counts as functional, cell-based.
A further data set has as its system A2780. Nature of the data set: Antiproliferative activity against human A2780 cells after 96 hrs by celltiter 96 assay. It counts as functional, cell-based. Conditions: A2780, 96 h.
For a further data set, the system named is HCT-116. As to the kind of experiment: Antiproliferative activity against human HCT116 cells after 96 hrs by celltiter 96 assay. It counts as functional, cell-based. Conditions: HCT-116, 96 h.
A further data set has as its system PC-3. As to the kind of experiment: Antiproliferative activity against human PC3 cells after 96 hrs by celltiter 96 assay. It counts as functional, cell-based. Conditions: PC-3, 96 h.
Data set [1] concerns the target T1, Histone deacetylase 1 (Homo sapiens, UniProt Q13547).
Description: Competitive inhibition of HDAC1 using KI-104 as substrate by fluorescence assay
The target in the next data set is Histone deacetylase 3 (Homo sapiens, UniProt O15379).
A further data set addresses Histone deacetylase 4 (Homo sapiens, UniProt P56524).
The target of the next data set is Histone deacetylase 5 (Homo sapiens, UniProt Q9UQL6).
Data set [2] has as its target T2, Protein deacetylase HDAC6 (Homo sapiens, UniProt Q9UBN7).
T2 sequence (Q9UBN7 whole entry): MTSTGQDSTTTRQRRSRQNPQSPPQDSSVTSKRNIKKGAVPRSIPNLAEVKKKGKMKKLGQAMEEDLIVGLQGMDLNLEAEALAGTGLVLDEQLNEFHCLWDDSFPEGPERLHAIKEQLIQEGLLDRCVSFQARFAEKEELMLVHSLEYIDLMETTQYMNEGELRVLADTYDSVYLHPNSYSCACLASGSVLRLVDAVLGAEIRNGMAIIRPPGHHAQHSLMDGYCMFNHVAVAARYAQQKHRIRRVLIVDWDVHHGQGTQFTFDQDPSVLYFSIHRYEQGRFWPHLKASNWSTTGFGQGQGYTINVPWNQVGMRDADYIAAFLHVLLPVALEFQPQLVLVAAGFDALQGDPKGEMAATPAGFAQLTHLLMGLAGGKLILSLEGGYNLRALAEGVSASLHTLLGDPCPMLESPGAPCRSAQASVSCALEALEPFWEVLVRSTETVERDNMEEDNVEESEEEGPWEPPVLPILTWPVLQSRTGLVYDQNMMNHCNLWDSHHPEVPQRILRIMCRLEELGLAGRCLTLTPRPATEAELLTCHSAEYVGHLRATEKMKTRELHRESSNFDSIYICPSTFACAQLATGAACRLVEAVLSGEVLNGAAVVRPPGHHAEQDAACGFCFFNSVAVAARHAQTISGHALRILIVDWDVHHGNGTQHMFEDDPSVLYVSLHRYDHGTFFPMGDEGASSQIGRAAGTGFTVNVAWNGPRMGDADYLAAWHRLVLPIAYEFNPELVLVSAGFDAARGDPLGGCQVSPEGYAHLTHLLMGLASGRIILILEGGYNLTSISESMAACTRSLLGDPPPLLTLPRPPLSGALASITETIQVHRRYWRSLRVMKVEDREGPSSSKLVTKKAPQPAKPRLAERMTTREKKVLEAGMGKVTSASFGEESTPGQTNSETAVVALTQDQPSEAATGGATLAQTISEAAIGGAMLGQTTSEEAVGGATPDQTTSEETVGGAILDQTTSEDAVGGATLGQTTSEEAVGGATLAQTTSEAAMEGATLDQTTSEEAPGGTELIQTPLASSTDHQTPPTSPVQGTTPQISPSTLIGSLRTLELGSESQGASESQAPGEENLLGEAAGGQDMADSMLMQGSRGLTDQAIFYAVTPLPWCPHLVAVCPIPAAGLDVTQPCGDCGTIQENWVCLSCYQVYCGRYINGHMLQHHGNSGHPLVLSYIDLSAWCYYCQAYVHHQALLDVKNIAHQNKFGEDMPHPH
Description: Competitive inhibition of HDAC6 using KI-104 as substrate by fluorescence assay

A further data set has as its target T3, Histone deacetylase 8 (Homo sapiens, UniProt Q9BY41).
T3 sequence (Q9BY41 whole entry): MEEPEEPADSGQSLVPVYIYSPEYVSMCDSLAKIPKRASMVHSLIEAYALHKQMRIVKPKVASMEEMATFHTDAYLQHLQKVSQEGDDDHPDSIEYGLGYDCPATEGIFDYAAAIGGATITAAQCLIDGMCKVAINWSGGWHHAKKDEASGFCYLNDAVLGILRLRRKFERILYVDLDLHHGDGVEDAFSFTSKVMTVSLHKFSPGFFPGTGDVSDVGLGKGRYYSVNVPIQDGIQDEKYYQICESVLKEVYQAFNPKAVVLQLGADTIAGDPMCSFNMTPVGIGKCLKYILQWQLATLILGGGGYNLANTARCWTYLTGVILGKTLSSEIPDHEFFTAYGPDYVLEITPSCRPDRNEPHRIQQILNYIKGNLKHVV

In a further data set the target is Histone deacetylase 9 (Homo sapiens, UniProt Q9UKV0).
For data set [3], the target named is T4, Polyamine deacetylase HDAC10 (Homo sapiens, UniProt Q969S8).
T4 sequence (Q969S8 whole entry): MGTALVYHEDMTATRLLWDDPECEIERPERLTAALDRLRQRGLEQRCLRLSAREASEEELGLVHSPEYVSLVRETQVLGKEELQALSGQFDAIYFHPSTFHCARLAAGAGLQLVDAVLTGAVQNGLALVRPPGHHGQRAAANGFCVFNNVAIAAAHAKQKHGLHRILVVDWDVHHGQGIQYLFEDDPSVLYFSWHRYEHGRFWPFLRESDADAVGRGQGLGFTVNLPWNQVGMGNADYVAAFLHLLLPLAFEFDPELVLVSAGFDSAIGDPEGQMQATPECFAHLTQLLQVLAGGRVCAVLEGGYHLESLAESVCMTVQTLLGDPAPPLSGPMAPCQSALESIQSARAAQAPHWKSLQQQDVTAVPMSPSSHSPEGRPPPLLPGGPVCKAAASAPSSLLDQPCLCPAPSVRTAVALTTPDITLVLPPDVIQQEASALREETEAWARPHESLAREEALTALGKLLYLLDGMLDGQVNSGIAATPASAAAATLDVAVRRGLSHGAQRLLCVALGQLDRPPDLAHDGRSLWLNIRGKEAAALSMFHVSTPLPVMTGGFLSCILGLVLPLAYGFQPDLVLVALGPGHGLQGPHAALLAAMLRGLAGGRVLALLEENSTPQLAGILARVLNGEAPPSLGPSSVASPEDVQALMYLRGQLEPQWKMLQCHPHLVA
Description: Competitive inhibition of HDAC10 using KI-104 as substrate by fluorescence assay

A further data set deals with T5, Histone deacetylase 11 (Homo sapiens, UniProt Q96DB2).
T5 sequence (Q96DB2 whole entry): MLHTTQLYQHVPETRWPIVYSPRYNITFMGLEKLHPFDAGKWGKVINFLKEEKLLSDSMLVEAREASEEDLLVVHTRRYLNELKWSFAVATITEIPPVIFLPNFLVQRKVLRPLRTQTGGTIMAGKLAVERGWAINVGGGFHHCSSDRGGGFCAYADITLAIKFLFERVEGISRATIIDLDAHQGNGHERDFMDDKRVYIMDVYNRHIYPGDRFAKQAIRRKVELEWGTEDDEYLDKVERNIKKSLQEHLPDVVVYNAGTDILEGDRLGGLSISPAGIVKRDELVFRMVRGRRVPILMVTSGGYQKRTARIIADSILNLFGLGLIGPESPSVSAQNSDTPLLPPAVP

The target in data set [4] is T1, Histone deacetylase 1. The source holds these as a separate data set.
Description: Inhibition of full length recombinant HDAC1 using Fluor de Lys as substrate by fluorescence assay
A further data set deals with Histone deacetylase 2 (Homo sapiens, UniProt Q92769).
Data set [5] can be described thus: Oral bioavailability in Wistar rat at 10 mg/kg. It counts as ADME, organism-based. Particulars: in vivo.
A short description of data set [6]: Toxicity in po dosed athymic nu/nu Harlan mouse with xenografted human HCT116 cells assessed as maximum tolerated administered qd for 21 days. Format: organism-based, HCT-116. Conditions: in vivo. Background: A xenograft is tissue or cells of one species grown in another, often human tumour cells in immunodeficient mice.
The nature of data set [7]: Half life in human liver microsomes. Format: ADME, Microsome. (Microsomes from liver hold many membrane-bound enzymes, among them those of drug oxidation.)
Data set [8] in a line: Half life in mouse liver microsomes. It counts as ADME, Microsome. Particulars: liver microsomes.
The nature of data set [9]: Half life in rat liver microsomes. Format: ADME, Microsome.
Data set [10] is described as follows: Half life in dog liver microsomes. It counts as ADME, Canis lupus familiaris, Microsome.
The nature of data set [11]: Kinetic solubility of the compound at pH 7 with […] DMSO. Format: physicochemical. Conditions: buffer, read-out: Kinetic_solubility.
A short description of data set [12]: 1-Octanol-sodium phosphate buffer distribution coefficient, log D of the compound at pH 7.4. Format: physicochemical.
Data set [13] in a line: Apparent permeability from apical to basolateral side of human Caco2 cells. Conditions: Caco-2. Format: ADME, cell-based. (Caco-2 monolayers are a common model of the intestinal barrier.)
The nature of data set [14]: Apparent permeability from basolateral to apical side of human Caco2 cells. Conditions: Caco-2. Format: ADME, cell-based.

A value given as a limit tells only on which side of the number the result lay.

Chain of Histone deacetylase 2 (Q92769 whole entry): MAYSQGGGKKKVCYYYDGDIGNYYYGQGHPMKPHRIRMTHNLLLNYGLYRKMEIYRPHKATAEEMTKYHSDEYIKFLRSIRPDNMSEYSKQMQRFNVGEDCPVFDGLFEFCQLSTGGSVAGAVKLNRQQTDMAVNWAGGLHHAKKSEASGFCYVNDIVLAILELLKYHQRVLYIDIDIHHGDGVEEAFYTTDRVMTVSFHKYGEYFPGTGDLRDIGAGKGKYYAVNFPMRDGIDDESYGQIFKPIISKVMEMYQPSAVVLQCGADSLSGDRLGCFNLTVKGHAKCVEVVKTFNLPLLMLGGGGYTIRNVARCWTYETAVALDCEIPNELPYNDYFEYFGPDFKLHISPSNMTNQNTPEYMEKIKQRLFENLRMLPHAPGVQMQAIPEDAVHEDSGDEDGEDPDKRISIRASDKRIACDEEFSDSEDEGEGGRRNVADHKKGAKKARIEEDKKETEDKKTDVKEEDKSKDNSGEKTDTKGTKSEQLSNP
T1 sequence (Q13547 whole entry): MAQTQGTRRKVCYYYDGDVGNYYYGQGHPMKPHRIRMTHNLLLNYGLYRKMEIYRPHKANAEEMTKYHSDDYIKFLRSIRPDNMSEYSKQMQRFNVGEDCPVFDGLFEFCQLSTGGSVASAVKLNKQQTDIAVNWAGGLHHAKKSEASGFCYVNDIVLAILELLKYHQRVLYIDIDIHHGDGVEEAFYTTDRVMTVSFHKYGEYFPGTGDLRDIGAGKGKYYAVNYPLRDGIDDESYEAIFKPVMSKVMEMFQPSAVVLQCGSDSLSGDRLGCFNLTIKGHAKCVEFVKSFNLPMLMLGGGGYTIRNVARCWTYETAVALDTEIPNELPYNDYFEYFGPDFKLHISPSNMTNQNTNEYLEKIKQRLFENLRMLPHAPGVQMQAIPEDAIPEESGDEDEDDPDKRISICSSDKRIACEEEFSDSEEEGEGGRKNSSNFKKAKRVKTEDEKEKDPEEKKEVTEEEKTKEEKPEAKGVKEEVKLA
Chain of Histone deacetylase 3 (O15379 whole entry): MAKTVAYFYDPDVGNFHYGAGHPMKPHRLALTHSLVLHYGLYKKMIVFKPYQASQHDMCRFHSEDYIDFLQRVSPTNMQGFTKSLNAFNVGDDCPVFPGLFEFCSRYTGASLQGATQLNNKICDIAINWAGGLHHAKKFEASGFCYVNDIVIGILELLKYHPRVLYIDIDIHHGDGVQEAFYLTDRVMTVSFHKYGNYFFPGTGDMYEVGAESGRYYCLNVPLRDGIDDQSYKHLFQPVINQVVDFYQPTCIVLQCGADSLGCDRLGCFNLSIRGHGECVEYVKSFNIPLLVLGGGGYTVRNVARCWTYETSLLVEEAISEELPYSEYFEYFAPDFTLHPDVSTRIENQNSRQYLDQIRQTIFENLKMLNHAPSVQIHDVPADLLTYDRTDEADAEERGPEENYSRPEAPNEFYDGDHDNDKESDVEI
Chain of Histone deacetylase 4 (P56524 whole entry): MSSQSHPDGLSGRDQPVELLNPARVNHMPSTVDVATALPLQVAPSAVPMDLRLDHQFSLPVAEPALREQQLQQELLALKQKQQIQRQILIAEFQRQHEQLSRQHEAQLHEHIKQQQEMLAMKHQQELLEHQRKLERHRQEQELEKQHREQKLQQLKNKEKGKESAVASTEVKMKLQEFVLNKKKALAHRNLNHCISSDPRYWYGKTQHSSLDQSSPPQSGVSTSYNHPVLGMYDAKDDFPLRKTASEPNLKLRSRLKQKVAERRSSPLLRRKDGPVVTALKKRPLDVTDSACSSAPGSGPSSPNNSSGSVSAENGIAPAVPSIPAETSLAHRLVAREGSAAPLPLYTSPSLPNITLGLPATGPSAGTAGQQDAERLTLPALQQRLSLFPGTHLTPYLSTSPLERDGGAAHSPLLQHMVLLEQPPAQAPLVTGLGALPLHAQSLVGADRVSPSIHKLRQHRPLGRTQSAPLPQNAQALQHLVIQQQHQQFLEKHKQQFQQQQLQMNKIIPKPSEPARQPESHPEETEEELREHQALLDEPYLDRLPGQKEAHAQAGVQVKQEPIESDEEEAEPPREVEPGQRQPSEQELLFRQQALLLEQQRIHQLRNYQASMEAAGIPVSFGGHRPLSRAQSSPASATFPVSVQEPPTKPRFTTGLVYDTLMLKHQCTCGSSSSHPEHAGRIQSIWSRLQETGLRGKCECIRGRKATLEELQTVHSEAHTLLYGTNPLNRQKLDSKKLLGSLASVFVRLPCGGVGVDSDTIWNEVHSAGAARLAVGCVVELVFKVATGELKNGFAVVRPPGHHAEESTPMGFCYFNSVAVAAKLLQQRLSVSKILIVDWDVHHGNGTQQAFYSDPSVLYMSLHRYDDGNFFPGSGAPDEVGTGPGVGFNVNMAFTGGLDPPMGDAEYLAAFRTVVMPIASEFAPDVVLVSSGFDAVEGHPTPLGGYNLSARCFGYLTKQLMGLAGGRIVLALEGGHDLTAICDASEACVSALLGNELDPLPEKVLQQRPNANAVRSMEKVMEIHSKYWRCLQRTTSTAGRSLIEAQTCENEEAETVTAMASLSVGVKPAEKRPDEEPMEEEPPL
Chain of Histone deacetylase 9 (Q9UKV0 whole entry): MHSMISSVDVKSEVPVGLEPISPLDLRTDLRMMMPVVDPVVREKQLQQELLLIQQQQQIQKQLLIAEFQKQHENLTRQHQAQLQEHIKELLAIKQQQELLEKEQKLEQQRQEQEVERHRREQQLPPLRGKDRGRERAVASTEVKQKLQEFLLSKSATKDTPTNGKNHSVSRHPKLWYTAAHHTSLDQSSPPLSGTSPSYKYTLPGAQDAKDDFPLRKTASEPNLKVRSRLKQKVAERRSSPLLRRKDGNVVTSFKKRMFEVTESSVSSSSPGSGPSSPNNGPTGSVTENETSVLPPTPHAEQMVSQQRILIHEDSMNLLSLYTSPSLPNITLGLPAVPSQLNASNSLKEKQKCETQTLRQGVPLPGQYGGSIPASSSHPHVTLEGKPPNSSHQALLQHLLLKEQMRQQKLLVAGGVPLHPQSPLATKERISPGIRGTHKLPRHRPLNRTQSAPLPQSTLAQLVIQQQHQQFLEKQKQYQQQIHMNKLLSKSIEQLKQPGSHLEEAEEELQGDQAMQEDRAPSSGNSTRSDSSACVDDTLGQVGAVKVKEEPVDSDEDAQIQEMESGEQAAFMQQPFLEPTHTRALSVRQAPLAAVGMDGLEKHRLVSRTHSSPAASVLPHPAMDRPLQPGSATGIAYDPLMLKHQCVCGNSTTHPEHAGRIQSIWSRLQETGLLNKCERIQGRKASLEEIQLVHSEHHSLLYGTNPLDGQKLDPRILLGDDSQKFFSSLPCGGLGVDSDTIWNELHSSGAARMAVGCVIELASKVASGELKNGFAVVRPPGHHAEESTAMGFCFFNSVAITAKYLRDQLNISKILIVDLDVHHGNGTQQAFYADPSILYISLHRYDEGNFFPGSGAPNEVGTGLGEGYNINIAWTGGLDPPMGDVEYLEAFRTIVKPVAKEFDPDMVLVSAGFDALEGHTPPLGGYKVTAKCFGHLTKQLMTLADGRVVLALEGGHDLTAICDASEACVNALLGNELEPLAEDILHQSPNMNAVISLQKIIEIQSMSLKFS
Chain of Histone deacetylase 5 (Q9UQL6 whole entry): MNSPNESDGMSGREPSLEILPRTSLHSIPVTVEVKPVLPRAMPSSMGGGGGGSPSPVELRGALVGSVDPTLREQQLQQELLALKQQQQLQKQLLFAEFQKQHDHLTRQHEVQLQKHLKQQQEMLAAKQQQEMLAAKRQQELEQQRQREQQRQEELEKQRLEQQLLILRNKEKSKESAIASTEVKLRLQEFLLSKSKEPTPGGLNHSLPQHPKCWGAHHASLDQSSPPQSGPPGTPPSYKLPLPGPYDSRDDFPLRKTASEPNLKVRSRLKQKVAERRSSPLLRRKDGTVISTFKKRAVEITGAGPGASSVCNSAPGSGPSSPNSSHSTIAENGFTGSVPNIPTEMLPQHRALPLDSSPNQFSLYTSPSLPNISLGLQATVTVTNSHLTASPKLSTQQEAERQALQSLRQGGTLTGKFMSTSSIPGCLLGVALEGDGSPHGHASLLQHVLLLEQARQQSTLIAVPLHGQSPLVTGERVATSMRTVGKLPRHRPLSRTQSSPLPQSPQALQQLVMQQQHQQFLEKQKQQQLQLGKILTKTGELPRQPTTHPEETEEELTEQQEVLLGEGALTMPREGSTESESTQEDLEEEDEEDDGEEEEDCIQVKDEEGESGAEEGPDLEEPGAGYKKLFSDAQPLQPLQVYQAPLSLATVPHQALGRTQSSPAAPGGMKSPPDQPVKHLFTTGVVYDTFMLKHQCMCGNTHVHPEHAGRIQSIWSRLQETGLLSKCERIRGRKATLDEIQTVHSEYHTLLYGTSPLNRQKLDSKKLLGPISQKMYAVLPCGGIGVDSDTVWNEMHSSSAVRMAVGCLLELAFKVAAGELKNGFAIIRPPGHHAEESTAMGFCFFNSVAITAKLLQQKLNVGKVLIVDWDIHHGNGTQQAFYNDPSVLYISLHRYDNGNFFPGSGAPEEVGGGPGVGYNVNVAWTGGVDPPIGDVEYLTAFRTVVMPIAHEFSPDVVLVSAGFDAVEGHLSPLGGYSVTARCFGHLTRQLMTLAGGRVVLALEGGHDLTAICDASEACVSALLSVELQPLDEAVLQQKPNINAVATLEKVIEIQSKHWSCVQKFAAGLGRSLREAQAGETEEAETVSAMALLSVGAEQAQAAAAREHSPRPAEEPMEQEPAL
Description for Histone deacetylase 11: Competitive inhibition of HDAC11 using KI-104 as substrate by fluorescence assay
Description for Histone deacetylase 2: Competitive inhibition of HDAC2 using KI-104 as substrate by fluorescence assay
Description for Histone deacetylase 3: Competitive inhibition of HDAC3 using KI-104 as substrate by fluorescence assay
Description for Histone deacetylase 4: Competitive inhibition of HDAC4 using KI-104 as substrate by fluorescence assay
Description for Histone deacetylase 5: Competitive inhibition of HDAC5 using KI-104 as substrate by fluorescence assay
Description for Histone deacetylase 8: Competitive inhibition of HDAC8 using KI-104 as substrate by fluorescence assay
Description for Histone deacetylase 9: Competitive inhibition of HDAC9 using KI-104 as substrate by fluorescence assay

By IC50 is commonly meant the concentration that gives 50% inhibition. A higher IC50 goes with lower potency. As a reminder, the Ki is a dissociation constant, usually derived from enzyme kinetics or from competition with a known ligand. Read a high Ki as a looser hold on the target. In the case of `CC/C=C\CCc1nc2cc(/C=C/C(=O)NO)ccc2n1CCNCC`, the IC50 was 310 nM in the data set with COLO 205; 200 nM in the data set on A2780; 660 nM in the data set with HCT-116; 160 nM in the data set with PC-3; 21 nM on Histone deacetylase 1 [4]. The Ki at Histone deacetylase 1 [1] stood at 7.7 nM; on Histone deacetylase 3, 16 nM; at Histone deacetylase 4 it was 2.4 nM; at Histone deacetylase 5 it was 3.1 nM; in data set [2], 4 nM; at Histone deacetylase 8 it was 55 nM. The inhibition constant Ki on Histone deacetylase 9 came to 5.7 nM; in data set [3], 18 nM; at Histone deacetylase 11 it was 8.8 nM; at Histone deacetylase 2, 8.6 nM.
On to `CCCCCc1nc2cc(/C=C/C(=O)NO)ccc2n1CCNC(C)C`, for which the concentration for half-maximal inhibition (IC50) in the data set on COLO 205 came out at 280 nM; with A2780, 230 nM; with HCT-116, 260 nM; with PC-3, 120 nM; at Histone deacetylase 1 [4], 30 nM. For the same compound, the inhibition constant (Ki) came to 10 nM on Histone deacetylase 1 [1]; 10 nM at Histone deacetylase 3; 3.6 nM at Histone deacetylase 4; 5.6 nM at Histone deacetylase 5; 227 nM in data set [2]; 94 nM on Histone deacetylase 8. The Ki was found to be 4.4 nM on Histone deacetylase 9, 19 nM in data set [3], 4.2 nM on Histone deacetylase 11 and 14 nM at Histone deacetylase 2.
A word on the bioavailability: it is the share of a dose that reaches the circulation, judged against a reference dose that is usually intravenous. A word on the MTD: it is the largest dose that counted as tolerated. As to `CCCCCCc1nc2cc(/C=C/C(=O)NO)ccc2n1CCNCC`, the IC50 amounted to 190 nM in the data set with COLO 205; 240 nM in the data set with A2780; 230 nM in the data set with HCT-116; 210 nM in the data set on PC-3; 20 nM against Histone deacetylase 1 [4]. In addition, the Ki at Histone deacetylase 1 [1] stood at 11 nM; on Histone deacetylase 3 it was 13 nM; on Histone deacetylase 4, 6.2 nM; at Histone deacetylase 5, 6.8 nM; in data set [2], 282 nM; on Histone deacetylase 8 it was 54 nM. Also, the inhibitory constant (Ki) stood at 14 nM on Histone deacetylase 9, 28 nM in [3], 13 nM on Histone deacetylase 11 and 18 nM on Histone deacetylase 2. The bioavailability in data set [5] came to 1.4%. Besides, the MTD at 504 h in data set [6] stood at 200 mg/kg.
A word on the half-life: it is how long it takes for the measured level to halve. A high value points to slow loss. As a reminder, the logD is lipophilicity at a set pH, counting ionised and neutral species. As a reminder, the Papp A→B is how fast a substance crosses the layer from the apical side. As a reminder, the Papp B→A is the apparent permeability from the basolateral to the apical side of a cell layer. For the compound `Cl.O=C(/C=C/c1ccc2c(c1)nc(CCc1ccccc1)n2CCN1CCCC1)NO`, the half-life in data set [7] was 60 min; in data set [8], 5 min; in data set [9] it was 4.3 min; in [10], 18 min. Also, the solubility kinetic in [11] is above 200 µM. Also, the logD in data set [12] (1-octanol/sodium phosphate buffer, read-out: logD) worked out at 2.1. Also, in data set [13], the Papp A→B was 3.01 ×10⁻⁶ cm/s. Moreover, the Papp B→A in data set [14] stood at 27.7 ×10⁻⁶ cm/s.
Turning to `O=C(/C=C/c1ccc2c(c1)nc(CCc1ccccc1)n2CCN1CCCC1)NO`, the IC50 turned out to be 130 nM in the data set with COLO 205 and 190 nM with HCT-116. Besides, the Ki on Histone deacetylase 3 was 12 nM; on Histone deacetylase 4, 8.5 nM; in [2], 20 nM; at Histone deacetylase 8, 95 nM. The half-life in data set [7] was at least 30 min; in data set [8], 5 min; in data set [9] it was 4.3 min; in [10], 18 min. For the same compound, in [11], the solubility kinetic is above 200 µM. In addition, the pH-dependent lipophilicity (logD) in data set [12] (octanol/water) came to 2.1. Further, the Papp A→B in [13] stood at 3.01 ×10⁻⁶ cm/s. Besides, the Papp B→A in data set [14] is 27.7 ×10⁻⁶ cm/s.
For `CCCCc1nc2cc(/C=C/C(=O)NO)ccc2n1CCNC(C)C`, the IC50 in the data set with COLO 205 was found to be 470 nM; in the data set on A2780, 380 nM; with HCT-116, 340 nM; with PC-3, 230 nM; against Histone deacetylase 1 [4], 42 nM. For the same compound, the Ki was 26 nM on Histone deacetylase 1 [1]; 27 nM on Histone deacetylase 3; 11 nM at Histone deacetylase 4; 11 nM at Histone deacetylase 5; 225 nM in data set [2]; 78 nM on Histone deacetylase 8. The Ki worked out at 30 nM at Histone deacetylase 9, 34 nM in [3], 18 nM on Histone deacetylase 11 and 33 nM on Histone deacetylase 2. In [5], this compound registered a bioavailability of 9%. Moreover, the MTD at 504 h in data set [6] came to 200 mg/kg.

The values above are taken from ChEMBL document CHEMBL1828590 (J Med Chem, 2011).
